Where “and” joins values, the source holds several entries; their conditions need not be identical. Identical values can stand only once.

MAPK3 (human), sequence (P27361 whole entry, looked up): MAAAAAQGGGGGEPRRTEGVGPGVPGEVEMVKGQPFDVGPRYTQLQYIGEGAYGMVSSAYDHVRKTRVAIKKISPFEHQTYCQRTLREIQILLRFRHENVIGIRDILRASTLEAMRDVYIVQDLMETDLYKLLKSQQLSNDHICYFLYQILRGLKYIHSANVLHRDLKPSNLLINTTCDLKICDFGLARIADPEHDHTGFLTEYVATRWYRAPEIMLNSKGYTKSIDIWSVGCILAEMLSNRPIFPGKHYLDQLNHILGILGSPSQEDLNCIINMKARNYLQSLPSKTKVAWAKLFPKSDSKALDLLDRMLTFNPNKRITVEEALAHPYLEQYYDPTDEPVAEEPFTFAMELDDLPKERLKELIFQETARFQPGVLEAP
PDGFRB (human), sequence (P09619 whole entry, looked up): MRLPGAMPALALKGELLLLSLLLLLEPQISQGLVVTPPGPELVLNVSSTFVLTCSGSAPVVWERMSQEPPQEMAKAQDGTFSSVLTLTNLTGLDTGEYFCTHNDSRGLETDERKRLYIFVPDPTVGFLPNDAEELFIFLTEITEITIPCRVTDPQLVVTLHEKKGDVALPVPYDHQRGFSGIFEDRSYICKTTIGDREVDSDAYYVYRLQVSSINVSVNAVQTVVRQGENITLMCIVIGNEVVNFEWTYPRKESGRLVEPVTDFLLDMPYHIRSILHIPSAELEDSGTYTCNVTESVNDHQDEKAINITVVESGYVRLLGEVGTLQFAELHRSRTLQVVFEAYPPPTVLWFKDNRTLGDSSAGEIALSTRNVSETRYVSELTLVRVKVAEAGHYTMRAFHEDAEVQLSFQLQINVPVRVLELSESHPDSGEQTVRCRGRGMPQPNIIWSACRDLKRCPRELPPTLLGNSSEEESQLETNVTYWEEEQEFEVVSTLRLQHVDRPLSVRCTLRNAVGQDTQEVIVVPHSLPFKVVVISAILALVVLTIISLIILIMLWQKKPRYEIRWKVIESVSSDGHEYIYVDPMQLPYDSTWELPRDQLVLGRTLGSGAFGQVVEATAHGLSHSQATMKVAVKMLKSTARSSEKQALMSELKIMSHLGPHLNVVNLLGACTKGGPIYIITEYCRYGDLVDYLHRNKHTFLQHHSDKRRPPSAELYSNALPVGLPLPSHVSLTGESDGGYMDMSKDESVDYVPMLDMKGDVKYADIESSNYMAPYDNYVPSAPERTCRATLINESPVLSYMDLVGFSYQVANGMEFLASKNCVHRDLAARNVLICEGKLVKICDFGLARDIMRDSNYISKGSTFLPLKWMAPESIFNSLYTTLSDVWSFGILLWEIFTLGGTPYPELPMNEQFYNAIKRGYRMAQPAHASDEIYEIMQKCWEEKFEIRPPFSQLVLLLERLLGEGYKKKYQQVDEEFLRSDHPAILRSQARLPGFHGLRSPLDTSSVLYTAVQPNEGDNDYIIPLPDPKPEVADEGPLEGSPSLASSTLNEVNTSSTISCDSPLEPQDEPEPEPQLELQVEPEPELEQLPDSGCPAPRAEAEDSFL
NEK2 (human), sequence (P51955 whole entry, looked up): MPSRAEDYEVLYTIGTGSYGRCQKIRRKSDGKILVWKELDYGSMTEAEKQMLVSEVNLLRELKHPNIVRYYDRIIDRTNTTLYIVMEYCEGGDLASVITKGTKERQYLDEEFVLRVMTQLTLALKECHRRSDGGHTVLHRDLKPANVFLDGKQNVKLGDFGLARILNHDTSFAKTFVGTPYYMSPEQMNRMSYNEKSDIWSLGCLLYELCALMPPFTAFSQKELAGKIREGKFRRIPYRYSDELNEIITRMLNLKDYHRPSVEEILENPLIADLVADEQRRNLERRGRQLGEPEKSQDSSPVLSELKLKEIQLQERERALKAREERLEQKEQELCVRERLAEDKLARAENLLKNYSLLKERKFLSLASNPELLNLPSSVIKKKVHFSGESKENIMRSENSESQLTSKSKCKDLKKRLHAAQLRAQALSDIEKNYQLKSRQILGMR
SLK (human), sequence (Q9H2G2 whole entry, looked up): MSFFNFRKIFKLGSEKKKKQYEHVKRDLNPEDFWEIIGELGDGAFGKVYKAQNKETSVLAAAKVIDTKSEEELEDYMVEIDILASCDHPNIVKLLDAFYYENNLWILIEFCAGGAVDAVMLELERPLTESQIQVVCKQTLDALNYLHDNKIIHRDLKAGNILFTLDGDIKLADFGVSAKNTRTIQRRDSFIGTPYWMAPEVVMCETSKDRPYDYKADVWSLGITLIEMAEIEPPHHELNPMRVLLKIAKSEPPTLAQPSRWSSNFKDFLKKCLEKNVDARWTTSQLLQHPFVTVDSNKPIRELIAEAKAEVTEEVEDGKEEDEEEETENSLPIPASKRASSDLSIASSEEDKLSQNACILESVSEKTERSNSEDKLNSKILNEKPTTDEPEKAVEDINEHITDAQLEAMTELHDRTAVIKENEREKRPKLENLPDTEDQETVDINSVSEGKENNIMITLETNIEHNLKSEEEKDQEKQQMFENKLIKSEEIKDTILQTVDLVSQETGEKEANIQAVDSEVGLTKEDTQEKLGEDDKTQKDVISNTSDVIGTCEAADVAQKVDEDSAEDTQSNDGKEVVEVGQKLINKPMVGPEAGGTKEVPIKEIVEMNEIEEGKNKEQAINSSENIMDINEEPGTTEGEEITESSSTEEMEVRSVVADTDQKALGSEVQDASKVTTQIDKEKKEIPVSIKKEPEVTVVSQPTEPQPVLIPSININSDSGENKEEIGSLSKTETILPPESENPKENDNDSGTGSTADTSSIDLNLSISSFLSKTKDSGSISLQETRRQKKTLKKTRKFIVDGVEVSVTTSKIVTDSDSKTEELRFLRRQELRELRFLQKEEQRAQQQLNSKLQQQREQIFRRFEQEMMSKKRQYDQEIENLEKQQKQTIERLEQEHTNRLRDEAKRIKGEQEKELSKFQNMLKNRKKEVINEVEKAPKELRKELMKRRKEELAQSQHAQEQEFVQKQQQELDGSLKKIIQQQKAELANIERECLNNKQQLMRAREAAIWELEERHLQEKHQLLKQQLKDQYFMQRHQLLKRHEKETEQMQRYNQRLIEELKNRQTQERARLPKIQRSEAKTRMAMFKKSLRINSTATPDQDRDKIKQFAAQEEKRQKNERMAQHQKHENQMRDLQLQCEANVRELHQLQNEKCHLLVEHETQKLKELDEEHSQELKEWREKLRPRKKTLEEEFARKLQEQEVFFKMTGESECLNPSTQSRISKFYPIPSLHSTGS
NEK1 (human), sequence (Q96PY6 whole entry, looked up): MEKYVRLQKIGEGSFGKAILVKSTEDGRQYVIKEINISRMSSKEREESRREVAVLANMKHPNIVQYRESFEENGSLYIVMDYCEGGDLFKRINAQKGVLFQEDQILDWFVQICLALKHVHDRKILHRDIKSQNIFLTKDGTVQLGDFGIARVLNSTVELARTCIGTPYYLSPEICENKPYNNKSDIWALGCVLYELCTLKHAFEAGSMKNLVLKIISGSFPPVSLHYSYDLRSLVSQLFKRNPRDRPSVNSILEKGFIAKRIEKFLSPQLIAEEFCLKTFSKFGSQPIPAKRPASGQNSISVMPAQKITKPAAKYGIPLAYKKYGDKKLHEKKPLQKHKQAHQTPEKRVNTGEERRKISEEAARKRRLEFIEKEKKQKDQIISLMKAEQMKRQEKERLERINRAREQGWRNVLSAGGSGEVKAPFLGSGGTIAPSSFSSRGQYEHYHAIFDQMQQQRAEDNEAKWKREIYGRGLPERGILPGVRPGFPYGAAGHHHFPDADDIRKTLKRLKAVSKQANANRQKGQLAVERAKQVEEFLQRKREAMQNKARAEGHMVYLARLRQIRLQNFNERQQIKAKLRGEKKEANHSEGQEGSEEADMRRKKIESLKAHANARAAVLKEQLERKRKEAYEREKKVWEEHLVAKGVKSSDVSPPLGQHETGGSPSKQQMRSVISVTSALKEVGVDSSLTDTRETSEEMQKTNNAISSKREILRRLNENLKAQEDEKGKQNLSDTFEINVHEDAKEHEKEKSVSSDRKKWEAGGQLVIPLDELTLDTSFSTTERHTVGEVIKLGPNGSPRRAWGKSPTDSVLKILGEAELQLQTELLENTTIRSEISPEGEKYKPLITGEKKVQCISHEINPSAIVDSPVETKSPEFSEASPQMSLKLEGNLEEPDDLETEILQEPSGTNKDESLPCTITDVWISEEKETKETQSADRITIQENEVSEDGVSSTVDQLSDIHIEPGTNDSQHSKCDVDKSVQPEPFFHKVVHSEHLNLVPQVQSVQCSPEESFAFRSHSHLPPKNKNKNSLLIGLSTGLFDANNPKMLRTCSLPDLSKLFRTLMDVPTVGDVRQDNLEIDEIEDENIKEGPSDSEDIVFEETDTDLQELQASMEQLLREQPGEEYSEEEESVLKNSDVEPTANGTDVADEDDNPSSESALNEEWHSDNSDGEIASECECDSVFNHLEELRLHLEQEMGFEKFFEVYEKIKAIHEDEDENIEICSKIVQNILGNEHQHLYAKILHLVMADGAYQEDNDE

One experiment has as its target MAPK3 (human) (UniProt P27361). The experiment in a line: radiometric filter-binding kinase assay, Kinase HotSpot. As to conditions: compound 0.5 µM; ATP 10 µM.
On to `Nc1ncnc2c1c(-c1ccc(Oc3ccccc3)cc1)cn2C1CCCC1`, for which the residual activity is 108%.
Still for that read-out and setting: the figure for `CCN(CC)CCNC(=O)c1c(C)[nH]c(/C=C2\C(=O)Nc3ccc(Cl)cc32)c1C` is 98.8%; for `CCOC(=O)c1c(C)[nH]c(/C=C2\C(=O)Nc3ccccc32)c1C` it is 101%.

The next experiment addresses PDGFRB (human) (UniProt P09619). The description is as above. As to conditions: compound 0.5 µM; ATP 10 µM.
Take `Nc1ncnc2c1c(-c1ccc(Oc3ccccc3)cc1)cn2C1CCCC1`: the residual activity turned out to be 73.4%.
Turning to `CCN(CC)CCNC(=O)c1c(C)[nH]c(/C=C2\C(=O)Nc3ccc(Cl)cc32)c1C`, the residual activity was determined as 9.28%.
Turning to `CCOC(=O)c1c(C)[nH]c(/C=C2\C(=O)Nc3ccccc32)c1C`, the residual activity was determined as 69.1%.

The target in the next experiment is IRAK4 (human) (UniProt Q9NWZ3). The description is as above. As to conditions: compound 0.5 µM; ATP 10 µM.
With `Nc1ncnc2c1c(-c1ccc(Oc3ccccc3)cc1)cn2C1CCCC1`, the residual activity is 98.5%.
On the same count and under the same terms, the same measure for `CCN(CC)CCNC(=O)c1c(C)[nH]c(/C=C2\C(=O)Nc3ccc(Cl)cc32)c1C`: 22.7%; for `CCOC(=O)c1c(C)[nH]c(/C=C2\C(=O)Nc3ccccc32)c1C`: 96.8%.

The target of a further experiment is PAK4 (human) (UniProt O96013). Described as above. As to conditions: compound 0.5 µM; ATP 10 µM.
On to `Nc1ncnc2c1c(-c1ccc(Oc3ccccc3)cc1)cn2C1CCCC1`, for which the residual activity came out at 101%.
The same measure, in the same setting: the same measure for `CCN(CC)CCNC(=O)c1c(C)[nH]c(/C=C2\C(=O)Nc3ccc(Cl)cc32)c1C`: 76.7%; for `CCOC(=O)c1c(C)[nH]c(/C=C2\C(=O)Nc3ccccc32)c1C`: 71.8%.

A further experiment concerns the target PLK3 (human) (UniProt Q9H4B4). Described as above. Particulars: compound 0.5 µM; ATP 10 µM.
Take `Nc1ncnc2c1c(-c1ccc(Oc3ccccc3)cc1)cn2C1CCCC1`: the residual activity is 105%.
Same read-out and setting: the same measure for `CCN(CC)CCNC(=O)c1c(C)[nH]c(/C=C2\C(=O)Nc3ccc(Cl)cc32)c1C`: 89.8%; for `CCOC(=O)c1c(C)[nH]c(/C=C2\C(=O)Nc3ccccc32)c1C`: 97.5%.

Another experiment has as its target ADRBK2 (human) (UniProt P35626). The experiment is described as above. Particulars: compound 0.5 µM; ATP 10 µM.
Consider `Nc1ncnc2c1c(-c1ccc(Oc3ccccc3)cc1)cn2C1CCCC1`, for which the residual activity came out at 92.2%.
Regarding `CCN(CC)CCNC(=O)c1c(C)[nH]c(/C=C2\C(=O)Nc3ccc(Cl)cc32)c1C`, the residual activity came out at 97.8%.
Same read-out and setting: the figure for `CCOC(=O)c1c(C)[nH]c(/C=C2\C(=O)Nc3ccccc32)c1C` is 94.7%.

The next experiment concerns the target NTRK2 (human) (UniProt Q16620). The description is as above. Particulars: compound 0.5 µM; ATP 10 µM.
With `Nc1ncnc2c1c(-c1ccc(Oc3ccccc3)cc1)cn2C1CCCC1`, the residual activity is 87%.
Still for that read-out and setting: the figure for `CCN(CC)CCNC(=O)c1c(C)[nH]c(/C=C2\C(=O)Nc3ccc(Cl)cc32)c1C` is 8.43%; for `CCOC(=O)c1c(C)[nH]c(/C=C2\C(=O)Nc3ccccc32)c1C` it is 66.6%.

Another experiment has as its target NEK2 (human) (UniProt P51955). The experiment is described as above. As to conditions: compound 0.5 µM; ATP 10 µM.
For the compound `Nc1ncnc2c1c(-c1ccc(Oc3ccccc3)cc1)cn2C1CCCC1`, the residual activity worked out at 88.5%.
Consider `CCN(CC)CCNC(=O)c1c(C)[nH]c(/C=C2\C(=O)Nc3ccc(Cl)cc32)c1C`, for which the residual activity came out at 77.2%.
For `CCOC(=O)c1c(C)[nH]c(/C=C2\C(=O)Nc3ccccc32)c1C`, the residual activity is 91.4%.

Another experiment addresses SLK (human) (UniProt Q9H2G2). Described as above. Particulars: compound 0.5 µM; ATP 10 µM.
`Nc1ncnc2c1c(-c1ccc(Oc3ccccc3)cc1)cn2C1CCCC1`: the residual activity is 96.5%.
Same read-out and setting: the figure for `CCN(CC)CCNC(=O)c1c(C)[nH]c(/C=C2\C(=O)Nc3ccc(Cl)cc32)c1C` is 38%.
Regarding `CCOC(=O)c1c(C)[nH]c(/C=C2\C(=O)Nc3ccccc32)c1C`, the residual activity was 89.8%.

The target of the next experiment is CLK3 (human) (UniProt P49761). Described as above. As to conditions: compound 0.5 µM; ATP 10 µM.
CLK3 (human), sequence (P49761 whole entry, looked up): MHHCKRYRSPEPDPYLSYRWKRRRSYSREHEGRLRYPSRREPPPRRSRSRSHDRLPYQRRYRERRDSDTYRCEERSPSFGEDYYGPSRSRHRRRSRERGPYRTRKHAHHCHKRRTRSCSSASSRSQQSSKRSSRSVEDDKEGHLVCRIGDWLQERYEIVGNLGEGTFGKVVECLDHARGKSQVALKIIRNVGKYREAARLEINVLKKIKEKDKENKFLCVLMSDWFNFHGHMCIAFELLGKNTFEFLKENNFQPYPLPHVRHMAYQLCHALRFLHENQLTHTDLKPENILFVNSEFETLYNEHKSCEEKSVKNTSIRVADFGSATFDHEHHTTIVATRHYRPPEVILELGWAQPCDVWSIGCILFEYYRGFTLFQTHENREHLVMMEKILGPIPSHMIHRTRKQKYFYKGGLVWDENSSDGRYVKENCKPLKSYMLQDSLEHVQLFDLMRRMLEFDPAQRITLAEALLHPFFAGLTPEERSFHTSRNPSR
With `Nc1ncnc2c1c(-c1ccc(Oc3ccccc3)cc1)cn2C1CCCC1`, the residual activity is 96.9%.
On the same count and under the same terms, the same measure for `CCN(CC)CCNC(=O)c1c(C)[nH]c(/C=C2\C(=O)Nc3ccc(Cl)cc32)c1C`: 101%.
Same read-out and setting: the same measure for `CCOC(=O)c1c(C)[nH]c(/C=C2\C(=O)Nc3ccccc32)c1C`: 100%.

The next experiment has as its target NEK1 (human) (UniProt Q96PY6). The experiment is described as above. Particulars: compound 0.5 µM; ATP 10 µM.
With `Nc1ncnc2c1c(-c1ccc(Oc3ccccc3)cc1)cn2C1CCCC1`, the residual activity was 79.3%.
The same measure, in the same setting: the same measure for `CCN(CC)CCNC(=O)c1c(C)[nH]c(/C=C2\C(=O)Nc3ccc(Cl)cc32)c1C`: 94.7%; for `CCOC(=O)c1c(C)[nH]c(/C=C2\C(=O)Nc3ccccc32)c1C`: 92.5%.

The next experiment addresses PHKG1 (human) (UniProt Q16816). The description is as above. As to conditions: compound 0.5 µM; ATP 10 µM.
On to `Nc1ncnc2c1c(-c1ccc(Oc3ccccc3)cc1)cn2C1CCCC1`, for which the residual activity is 91.1%.
`CCN(CC)CCNC(=O)c1c(C)[nH]c(/C=C2\C(=O)Nc3ccc(Cl)cc32)c1C`: the residual activity came out at 3.19%.
On the same count and under the same terms, the same measure for `CCOC(=O)c1c(C)[nH]c(/C=C2\C(=O)Nc3ccccc32)c1C`: 73.3%.

In a further experiment the target is LYN (human) (UniProt P07948). Described as above. Particulars: compound 0.5 µM; ATP 10 µM.
In the case of `Nc1ncnc2c1c(-c1ccc(Oc3ccccc3)cc1)cn2C1CCCC1`, the residual activity was 3.49% and 5.13%.
The same measure, in the same setting: the same measure for `CCN(CC)CCNC(=O)c1c(C)[nH]c(/C=C2\C(=O)Nc3ccc(Cl)cc32)c1C`: 21.9% and 6.34%; for `CCOC(=O)c1c(C)[nH]c(/C=C2\C(=O)Nc3ccccc32)c1C`: 84.1% and 98.4%.

For a further experiment, the target named is PRKG2 (human) (UniProt Q13237). Described as above. As to conditions: compound 0.5 µM; ATP 10 µM.
With `Nc1ncnc2c1c(-c1ccc(Oc3ccccc3)cc1)cn2C1CCCC1`, the residual activity turned out to be 114%.
Same read-out and setting: the same measure for `CCN(CC)CCNC(=O)c1c(C)[nH]c(/C=C2\C(=O)Nc3ccc(Cl)cc32)c1C`: 82.6%; for `CCOC(=O)c1c(C)[nH]c(/C=C2\C(=O)Nc3ccccc32)c1C`: 78.9%.

In a further experiment the target is PRKD2 (human) (UniProt Q9BZL6). The description is as above. Particulars: compound 0.5 µM; ATP 10 µM.
For `Nc1ncnc2c1c(-c1ccc(Oc3ccccc3)cc1)cn2C1CCCC1`, the residual activity amounted to 91.5%.
Same read-out and setting: the same measure for `CCN(CC)CCNC(=O)c1c(C)[nH]c(/C=C2\C(=O)Nc3ccc(Cl)cc32)c1C`: 11.9%; for `CCOC(=O)c1c(C)[nH]c(/C=C2\C(=O)Nc3ccccc32)c1C`: 97.1%.

In the next experiment the target is MYO3B (human) (UniProt Q8WXR4). The experiment is described as above. As to conditions: compound 0.5 µM; ATP 10 µM.
With `Nc1ncnc2c1c(-c1ccc(Oc3ccccc3)cc1)cn2C1CCCC1`, the residual activity amounted to 103%.
`CCN(CC)CCNC(=O)c1c(C)[nH]c(/C=C2\C(=O)Nc3ccc(Cl)cc32)c1C`: the residual activity was determined as 41.3%.
Same read-out and setting: the figure for `CCOC(=O)c1c(C)[nH]c(/C=C2\C(=O)Nc3ccccc32)c1C` is 74.1%.

The target in the next experiment is TTK (human) (UniProt P33981). The experiment is described as above. As to conditions: compound 0.5 µM; ATP 10 µM.
For the compound `Nc1ncnc2c1c(-c1ccc(Oc3ccccc3)cc1)cn2C1CCCC1`, the residual activity came to 104%.
With `CCN(CC)CCNC(=O)c1c(C)[nH]c(/C=C2\C(=O)Nc3ccc(Cl)cc32)c1C`, the residual activity came out at 59.8%.
As for `CCOC(=O)c1c(C)[nH]c(/C=C2\C(=O)Nc3ccccc32)c1C`, the residual activity worked out at 96.6%.

The target of a further experiment is GRK4 (human) (UniProt P32298). Described as above. As to conditions: compound 0.5 µM; ATP 10 µM.
Turning to `Nc1ncnc2c1c(-c1ccc(Oc3ccccc3)cc1)cn2C1CCCC1`, the residual activity was found to be 103%.
As to `CCN(CC)CCNC(=O)c1c(C)[nH]c(/C=C2\C(=O)Nc3ccc(Cl)cc32)c1C`, the residual activity stood at 80.8%.
Take `CCOC(=O)c1c(C)[nH]c(/C=C2\C(=O)Nc3ccccc32)c1C`: the residual activity worked out at 82.9%.

Another experiment has as its target SRC (human) (UniProt P12931). The experiment is described as above. Particulars: compound 0.5 µM; ATP 10 µM.
On to `Nc1ncnc2c1c(-c1ccc(Oc3ccccc3)cc1)cn2C1CCCC1`, for which the residual activity was 13.4%.
For `CCN(CC)CCNC(=O)c1c(C)[nH]c(/C=C2\C(=O)Nc3ccc(Cl)cc32)c1C`, the residual activity came out at 26%.
Take `CCOC(=O)c1c(C)[nH]c(/C=C2\C(=O)Nc3ccccc32)c1C`: the residual activity was determined as 93.8%.

In another experiment the target is PTK2 (human) (UniProt Q05397). The description is as above. As to conditions: compound 0.5 µM; ATP 10 µM.
In the case of `Nc1ncnc2c1c(-c1ccc(Oc3ccccc3)cc1)cn2C1CCCC1`, the residual activity is 93.9%.
Still for that read-out and setting: the figure for `CCN(CC)CCNC(=O)c1c(C)[nH]c(/C=C2\C(=O)Nc3ccc(Cl)cc32)c1C` is 25.8%; for `CCOC(=O)c1c(C)[nH]c(/C=C2\C(=O)Nc3ccccc32)c1C` it is 93%.

For a further experiment, the target named is CSNK1A1 (human) (UniProt P48729). The experiment is described as above. Particulars: compound 0.5 µM; ATP 10 µM.
For the compound `Nc1ncnc2c1c(-c1ccc(Oc3ccccc3)cc1)cn2C1CCCC1`, the residual activity amounted to 84.9%.
For the compound `CCN(CC)CCNC(=O)c1c(C)[nH]c(/C=C2\C(=O)Nc3ccc(Cl)cc32)c1C`, the residual activity came to 75.7%.
Turning to `CCOC(=O)c1c(C)[nH]c(/C=C2\C(=O)Nc3ccccc32)c1C`, the residual activity came out at 98.6%.

For the origin of these results see the kinase profiling compilation of Christmann-Franck et al. (2016).
